Experimental data taken from patent US6864261B2, “Therapeutic agents useful for treating pain” (Euro-Celtique S.A., priority 2002, dated 2005).

Molecular target: T1, mGluR5 (Rattus norvegicus, UniProt P31424)
T1 construct: The procedure allows the expression of the mGluR5 receptor by astrocytes; endogenous in cells; host or cells: secondary astrocyte cultures from cortices of Sprague-Dawley E18 embryos, cultured with EGF
Experiment: Inhibition of glutamate induced calcium mobilization in astrocytes expressing mGluR5 (Fluo-4, Fluorometric Imaging Plate reader)
Format: cell-based
Details: final glutamate 10 mM (FIG. 1 legend: 10 μM), mean of 3 experiments
Protocol: Cell cultures: Primary glial cultures were prepared from cortices of Sprague-Dawley 18 days old embryos. The cortices were dissected and then dissociated by trituration. The resulting cell homogenate was plated onto poly-D-lysine precoated T175 flasks (BIOCOAT, commercially available from Becton Dickinson and Company Inc. of Franklin Lakes, N.J.) in Dulbecco's Modified Eagle's Medium (“DMEM,” pH 7.4), buffered with 25 mM HEPES, and supplemented with 15% fetal calf serum (“FCS,” commercially available from Hyclone Laboratories Inc. of Omaha, Nebr.), and incubated at 37° C. and 5% CO2. After 24 hours, FCS supplementation was reduced to 10%. […]
Assay Protocol: After 3-5 days incubation with EGF, the astrocytes were washed with 127 mM NaCl, 5 mM KCl, 2 mM MgCl2, […] NaH2PO4, 2 mM CaCl2, 5 mM NaHCO3, 8 mM HEPES, 10 mM Glucose at pH 7.4 (“Assay Buffer”) and loaded with the dye Fluo-4 (commercially available from Molecular Probes Inc. of Eugene, Oreg.) using 0.1 mL of Assay Buffer containing Fluo-4 ([…]). […] The plates containing the astrocytes were then transferred to a Fluorometric Imaging Plate reader (commercially available from Molecular Devices Corporation of Sunnyvale, Calif.) for the assessment of calcium mobilization flux in the presence of glutamate and in the presence or absence of antagonist. […] In each experiment each data point was determined two times.

T1 sequence (P31424 21-1203): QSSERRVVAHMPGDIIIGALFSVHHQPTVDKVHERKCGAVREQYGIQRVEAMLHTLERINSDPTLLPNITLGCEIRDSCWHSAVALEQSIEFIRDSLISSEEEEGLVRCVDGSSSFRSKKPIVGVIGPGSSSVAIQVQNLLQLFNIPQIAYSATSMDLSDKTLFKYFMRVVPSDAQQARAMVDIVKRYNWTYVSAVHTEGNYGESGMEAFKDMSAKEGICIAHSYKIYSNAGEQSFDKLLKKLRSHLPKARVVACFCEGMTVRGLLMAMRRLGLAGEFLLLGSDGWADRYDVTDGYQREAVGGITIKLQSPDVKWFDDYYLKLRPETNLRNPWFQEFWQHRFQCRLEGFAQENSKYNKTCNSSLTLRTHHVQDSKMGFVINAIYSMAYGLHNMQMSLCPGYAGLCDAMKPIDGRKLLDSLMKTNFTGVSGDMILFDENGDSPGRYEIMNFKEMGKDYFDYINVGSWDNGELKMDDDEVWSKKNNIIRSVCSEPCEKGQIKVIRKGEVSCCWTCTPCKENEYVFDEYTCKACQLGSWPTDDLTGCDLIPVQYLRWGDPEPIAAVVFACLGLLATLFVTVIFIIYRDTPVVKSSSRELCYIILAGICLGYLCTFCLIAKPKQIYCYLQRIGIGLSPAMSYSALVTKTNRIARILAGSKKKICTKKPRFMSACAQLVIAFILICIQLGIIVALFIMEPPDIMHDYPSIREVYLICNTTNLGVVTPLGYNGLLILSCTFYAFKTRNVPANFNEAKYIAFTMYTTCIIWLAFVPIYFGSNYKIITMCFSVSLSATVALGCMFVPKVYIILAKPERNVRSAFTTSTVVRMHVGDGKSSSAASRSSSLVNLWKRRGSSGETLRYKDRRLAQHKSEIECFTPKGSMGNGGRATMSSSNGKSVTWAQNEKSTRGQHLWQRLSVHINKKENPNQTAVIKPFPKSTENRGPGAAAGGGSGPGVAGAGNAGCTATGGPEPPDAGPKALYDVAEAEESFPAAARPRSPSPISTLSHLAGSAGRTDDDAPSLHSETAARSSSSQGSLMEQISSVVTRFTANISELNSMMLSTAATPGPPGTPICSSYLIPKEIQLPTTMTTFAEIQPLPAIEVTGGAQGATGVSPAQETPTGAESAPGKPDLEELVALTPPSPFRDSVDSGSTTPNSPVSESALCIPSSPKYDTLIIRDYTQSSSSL

IC50: 8.9 ± 4.8 nM
SMILES: O=C(C#Cc1ccccc1)N1CCN(c2ncccc2[N+](=O)[O-])CC1 [Compound AA]
